In ChEMBL document CHEMBL3714750, “Aryl sulfonamides” (2008):
pIC50: −log10 of the molar value. Activity calls are given as the source filed them. The rule behind the calls is not given here.

Each compound was assayed on Mus musculus (assay: Inhibition of inflammatory bowel disease-associated growth retardation in MDR1a-knockout mouse at 50 mg/kg, sc dosed twice daily for 14 consecutive weeks starting at age 10 weeks).
Type: functional, organism-based

SMILES	Activity
CC(C)(C)c1ccc(S(=O)(=O)Nc2ccc(Cl)cc2C(=O)c2ccncc2)cc1	Active

Each compound was assayed against T1, C-C chemokine receptor type 9 (Homo sapiens, UniProt P51686) (assay: Antagonist activity against CCR9 in human MOLT4 cells assessed as inhibition of human recombinant TECK-induced calcium response pre-treated before TECK stimulation by Flou-4-AM dye based FLIPR assay).
T1 sequence (P51686 whole entry): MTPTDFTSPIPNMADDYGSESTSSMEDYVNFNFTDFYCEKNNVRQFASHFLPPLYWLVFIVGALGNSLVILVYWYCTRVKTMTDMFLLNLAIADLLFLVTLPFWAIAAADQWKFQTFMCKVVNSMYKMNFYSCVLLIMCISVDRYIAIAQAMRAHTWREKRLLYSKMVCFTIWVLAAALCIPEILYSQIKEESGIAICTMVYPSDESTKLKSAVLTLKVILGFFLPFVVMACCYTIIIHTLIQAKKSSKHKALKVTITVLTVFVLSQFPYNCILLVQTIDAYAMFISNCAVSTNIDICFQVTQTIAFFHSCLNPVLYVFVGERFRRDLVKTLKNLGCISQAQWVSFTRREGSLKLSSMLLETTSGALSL
Type: functional, cell-based, MOLT-4

SMILES	pIC50
O=C(c1cccnc1)c1cc(Cl)ccc1NS(=O)(=O)c1ccc(OC(F)(F)F)cc1	> 6.00
C[C@@H]1CN(c2ccc(S(=O)(=O)Nc3ccc(Cl)cc3C(=O)c3cc[n+]([O-])cc3)cc2F)C[C@H](C)O1	> 6.00
O=C(c1cccnc1)c1cc(F)c(F)cc1NS(=O)(=O)c1ccc(N2CCOCC2)cc1	> 6.00
CC1(c2ccc(S(=O)(=O)Nc3ccc(Cl)cc3C(=O)c3ccccn3)cc2)CCOCC1	> 6.00
Cc1ccc(C(=O)c2cc(Cl)ccc2NS(=O)(=O)c2ccc(-c3ocnc3C)cc2)cn1	> 6.00
O=C(c1ccncc1)c1cc(Cl)ccc1NS(=O)(=O)c1ccc(Cl)cc1	< 6.00
CC1(c2ccc(S(=O)(=O)Nc3ccc(Cl)cc3C(=O)c3ccc[n+]([O-])c3)cc2)CCOCC1	> 6.00
Cc1cc(C(=O)c2cc(Cl)ccc2NS(=O)(=O)c2ccc(C3(C)CCOCC3)cc2)cc[n+]1[O-]	> 6.00
COc1ccc(S(=O)(=O)Nc2ccc(Cl)cc2C(=O)NCc2ccccc2)cc1	> 6.00
O=C(c1ccc[n+]([O-])c1)c1cc(Cl)ccc1NS(=O)(=O)c1ccc(N2CCOCC2)cc1	> 6.00
Cc1cc(C(=O)c2cc(Cl)ccc2NS(=O)(=O)c2ccc(C(C)(C)C)cc2)ccn1	> 6.00
CC(C)(C)c1ccc(S(=O)(=O)Nc2ccc(Cl)cc2C(=O)c2cccnc2)cc1	> 6.00
CC(C)(c1ccc(S(=O)(=O)Nc2ccc(Cl)cc2C(=O)c2ccncc2)cc1)N1CCCCC1=O	> 6.00
CC(=O)c1ccc(S(=O)(=O)Nc2ccc(Cl)cc2C(=O)c2ccncc2)cc1	< 6.00
O=C(c1ccncc1)c1cc(Cl)ccc1NS(=O)(=O)c1ccc(-c2ccc[nH]2)cc1	< 6.00
O=C(c1ccncc1)c1cc(Cl)ccc1NS(=O)(=O)c1ccc(-c2csnn2)cc1	> 6.00
COc1ccc(S(=O)(=O)Nc2ccc(Cl)cc2C(=O)c2nccn2C)cc1	< 6.00
Cc1ncccc1C(=O)c1cc(Cl)ccc1NS(=O)(=O)c1ccc(C2(C)CCOCC2)cc1	> 6.00
Cc1nnc(-c2ccc(S(=O)(=O)Nc3ccc(Cl)cc3C(=O)c3ccccn3)cc2)o1	< 6.00
CC1(c2ccc(S(=O)(=O)Nc3ccc(Cl)cc3C(=O)c3ccncc3)cc2)OCCO1	> 6.00
O=C(c1ccncc1)c1cc(Cl)ccc1NS(=O)(=O)c1ccc(N2CCOCC2)c(F)c1	> 6.00
Cc1cc(C(=O)c2cc(Cl)ccc2NS(=O)(=O)c2ccc(OC(F)(F)F)cc2)ccn1	> 6.00

SMILES	pIC50
CC(C)(c1ncco1)c1ccccc1S(=O)(=O)Nc1ccc(Cl)cc1C(=O)c1ccncc1	> 6.00
Cc1cccc(C(=O)c2cc(Cl)ccc2NS(=O)(=O)c2ccc(C3(C)CCOCC3)cc2)n1	> 6.00
Cc1ccc(C(=O)c2cc(Cl)ccc2NS(=O)(=O)c2ccc(-c3cnco3)cc2)cn1	> 6.00
CC(C)(c1ccc(S(=O)(=O)Nc2ccc(Cl)cc2C(=O)c2ccncc2)cc1)c1cocn1	> 6.00
CC(C)(C)c1ccc(S(=O)(=O)Nc2ccc(Cl)cc2C(=O)c2ccc[n+]([O-])c2)cc1	> 6.00
O=C(c1ccncc1)c1cc(Cl)ccc1NS(=O)(=O)c1ccc(-c2nccs2)cc1	< 6.00
O=C(c1ccncc1)c1cc(Cl)ccc1NS(=O)(=O)c1ccc(N2CCS(=O)(=O)CC2)cc1	< 6.00
Cc1ccc(C(=O)c2cc(Cl)ccc2NS(=O)(=O)c2ccc(OC(F)(F)F)cc2)cn1	> 6.00
CC(C)(C)c1ccc(S(=O)(=O)Nc2ccc(Cl)cc2C(=O)c2ccncn2)cc1	> 6.00
CC(C)(c1ccc(S(=O)(=O)Nc2ccc(Cl)cc2C(=O)c2ccncc2)cc1)c1ncco1	> 6.00
Cc1cccc(C(=O)c2cc(Cl)ccc2NS(=O)(=O)c2ccc(-c3cnco3)cc2)n1	> 6.00
CC(C)(C)c1ccc(S(=O)(=O)Nc2ccc(S(=O)(=O)N3CCCC3)cc2C(=O)c2cc[n+]([O-])cc2)cc1	< 6.00
CC(C)(C)c1ccc(S(=O)(=O)Nc2cc(F)c(F)cc2C(=O)c2ccncc2)cc1	> 6.00
CC(C)(C)OC(=O)n1c(-c2ccc(S(=O)(=O)Nc3ccc(Cl)cc3C(=O)c3ccncc3)cc2)cc2ccccc21	< 6.00
Cc1nnc(-c2ccc(S(=O)(=O)Nc3ccc(Cl)cc3C(=O)c3cccnc3)cc2)o1	< 6.00
O=C(c1ccncc1)c1cc(Cl)ccc1NS(=O)(=O)c1ccc(-c2cnco2)cc1	> 6.00
Cc1ccc(C(=O)c2cc(Cl)ccc2NS(=O)(=O)c2ccc(C3(C)CCOCC3)cc2)c[n+]1[O-]	> 6.00
CCOC(=O)CNC(=O)c1cc(Cl)ccc1NS(=O)(=O)c1ccc(OC)cc1	< 6.00
COC(=O)CCc1ccc(S(=O)(=O)Nc2ccc(Cl)cc2C(=O)c2cccnc2)cc1	> 6.00
Cc1ccc(C(=O)c2cc(Cl)ccc2NS(=O)(=O)c2ccc(-c3nnc(C)o3)cc2)cn1	< 6.00
CC1(c2ccc(S(=O)(=O)Nc3ccc(Cl)cc3C(=O)c3cc[n+]([O-])cc3)cc2)OCCO1	> 6.00

Results, then the compound that gave them:

pIC50	SMILES
> 6.00	CC(C)(C)c1ccc(S(=O)(=O)Nc2ccc(Cl)cc2C(=O)c2ccncc2)cc1
> 6.00	O=C(c1ccncc1)c1cc(Cl)ccc1NS(=O)(=O)c1ccc(-c2ccccc2)cc1
> 6.00	CC(C)(c1ccc(S(=O)(=O)Nc2ccc(Cl)cc2C(=O)c2cc[n+]([O-])cc2)cc1)c1cnco1
> 6.00	CC(C)(c1ccc(S(=O)(=O)Nc2ccc(Cl)cc2C(=O)c2cccnc2)cc1)c1ncco1
> 6.00	Cc1ccc(C(=O)c2cc(Cl)ccc2NS(=O)(=O)c2ccc(N3CCOCC3)cc2)c[n+]1[O-]
> 6.00	CC(C)(C)c1ccc(S(=O)(=O)Nc2ccc(Cl)cc2C(=O)c2ccnc(S(C)(=O)=O)c2)cc1
< 6.00	Cc1nnc(-c2cccc(S(=O)(=O)Nc3ccc(Cl)cc3C(=O)c3ccncc3)c2)o1
< 6.00	Cn1nnnc1-c1ccc(S(=O)(=O)Nc2ccc(Cl)cc2C(=O)c2ccncc2)cc1
< 6.00	COc1ccc(S(=O)(=O)Nc2ccc(Cl)cc2C(=O)N2CCCC(Cc3ccccc3)C2)cc1 (centres undefined)
> 6.00	CC1(c2ccc(S(=O)(=O)Nc3ccc(Cl)cc3C(=O)c3ccncc3)cc2)CCOCC1
> 6.00	O=C(c1ccncc1)c1cc(Cl)ccc1NS(=O)(=O)c1ccc(N2CCSCC2)cc1
> 6.00	O=C(c1cc[n+]([O-])cc1)c1cc(Cl)ccc1NS(=O)(=O)c1ccc(N2CCOCC2)c(F)c1
> 6.00	Cc1ccc(C(=O)c2cc(Cl)ccc2NS(=O)(=O)c2ccc(C(C)(C)C)cc2)cn1
< 6.00	O=C(c1ccncc1)c1cc(Cl)ccc1NS(=O)(=O)c1ccc(-c2cncnc2)cc1
> 6.00	CSc1ccc(C(=O)c2cc(Cl)ccc2NS(=O)(=O)c2ccc(C(C)(C)C)cc2)cn1
> 6.00	CC(C)(C)c1ccc(S(=O)(=O)Nc2ccc(F)c(F)c2C(=O)c2cccnc2)cc1
> 6.00	Cc1ccc(C(=O)c2cc(Cl)ccc2NS(=O)(=O)c2ccc(C(C)(C)c3cocn3)cc2)cn1
< 6.00	O=C(c1ccncc1)c1cc(Cl)ccc1NS(=O)(=O)c1ccc(-c2cc3ccccc3[nH]2)cc1
> 6.00	COc1ccc(S(=O)(=O)Nc2ccc(Cl)cc2C(=O)NCCc2ccccc2)cc1
> 6.00	Cc1ccc(C(=O)c2cc(Cl)ccc2NS(=O)(=O)c2ccc(C3(C)CCOCC3)cc2)cn1
> 6.00	O=C(c1ccncc1)c1cc(Cl)ccc1NS(=O)(=O)c1ccc(N2CCCC2)cc1
< 6.00	CS(=O)(=O)c1ccc(S(=O)(=O)Nc2ccc(Cl)cc2C(=O)c2ccncc2)cc1
> 6.00	Cc1ccc(C(=O)c2cc(Cl)ccc2NS(=O)(=O)c2ccc(N3C[C@@H](C)O[C@@H](C)C3)cc2)c[n+]1[O-]
> 6.00	C[C@@H]1CN(c2ccc(S(=O)(=O)Nc3ccc(Cl)cc3C(=O)c3ccncc3)cc2F)C[C@H](C)O1
> 6.00	CC(C)(C)c1ccc(S(=O)(=O)Nc2ccc(Cl)cc2C(=O)c2ccc(Cl)nc2)cc1
